Measured values reported in the NIST ThermoML archive (doi:10.1021/je4004977).

Conditions: for viscosity / mass density: 101.33 kPa; for viscosity / mass density / vapor or sublimation pressure: Liquid; for viscosity: Capillary tube (Ostwald / Ubbelohde) method; for surface tension liquid-gas: Drop volume; for mass density: Pycnometric method; for vapor or sublimation pressure: Closed cell (Static) method

CC(O)COC(C)COC(C)COC(C)CO (stereo not drawn) [2-[2-[2-(2-hydroxypropoxy)propoxy]propoxy]-1-propanol]
Conditions	mass density [kg/m3]	surface tension liquid-gas [mN/m]	vapor or sublimation pressure [kPa]	viscosity [mPa·s]
288.15 K	–	–	–	105.44
293.15 K	–	–	–	67.81
298.15 K	1019.6	34.3	–	–
299.15 K	–	–	–	44.89
303.15 K	–	–	–	35.66
308.15 K	1013.7	33.4	–	27.85
313.15 K	–	–	–	22.48
318.15 K	1007.9	32.6	–	17.97
323.15 K	–	–	–	14.32
328.15 K	1001.3	31.8	–	11.58
333.15 K	–	–	–	9.39
338.15 K	995.4	–	–	7.65
344.15 K	–	–	–	6.04
348.15 K	988.8	30.2	–	5.22
353.15 K	985.1	–	–	4.42
358.15 K	982.5	–	–	3.84
363.15 K	979	–	–	3.38
368.15 K	975.5	28.5	–	3
373.15 K	–	–	–	2.62
378.15 K	–	27.7	–	2.28
383.15 K	965.4	–	–	1.9
388.15 K	–	–	–	1.48
393.15 K	958.7	–	–	1.02
398.15 K	–	26.1	–	–
403.15 K	951.4	–	–	–
408.15 K	–	25.2	–	–
409.85 K	–	–	0.01	–
413.15 K	944.3	–	–	–
418.15 K	–	24.4	–	–
423.15 K	937	–	–	–
428.15 K	–	23.6	–	–
433.15 K	928.9	–	–	–
438.15 K	–	22.7	–	–
443.15 K	919.4	–	–	–
448.15 K	–	21.9	–	–
458.15 K	–	21.1	–	–
462.55 K	–	–	2.68	–
468.15 K	–	20.2	–	–
480.15 K	–	–	5.34	–
486.15 K	–	–	6.66	–
492.15 K	–	–	8.02	–
500.15 K	–	–	10.72	–
507.15 K	–	–	13.36	–
513.15 K	–	–	16.05	–
518.15 K	–	–	18.79	–
522.15 K	–	–	21.34	–
527.15 K	–	–	24.02	–
530.15 K	–	–	26.71	–
537.15 K	–	–	32.05	–
543.15 K	–	–	37.42	–
545.15 K	–	–	40.02	–
550.15 K	–	–	45.37	–
554.15 K	–	–	50.69	–
556.15 K	–	–	53.36	–
560.15 K	–	–	58.74	–
564.15 K	–	–	64.02	–
567.15 K	–	–	69.28	–
570.15 K	–	–	74.63	–
575.15 K	–	–	83.34	–
582.15 K	–	–	101.02	–
